Measurements: patent US12077537B2 (Gilead Sciences, Inc., priority 2020, dated 2024)

Each molecule was assayed on HIV-IIIb (assay: Antiviral assay in MT4 cells). Settings: Human immunodeficiency virus 1, MT4, 120 h; MT-4 cells mixed with HIV-IIIb at m.o.i. 0.003; 5 days at 37° C.; CellTiter-Glo luminescence; 50% decrease in signal, a measure of HIV-1 replication.
Format: cell-based
Procedure, shortened: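 MT-4 cells were infected with HIV-IIIb at m.o.i. 0.003 for 1 hour, then added to 3-fold serially diluted compound (10 concentrations, quadruplicate) in medium with 10% FBS. After 5 days at 37° C, cell viability was read by CellTiter-Glo chemiluminescence.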

| EC50 | Structure (SMILES) |
| --- | --- |
| 11.1 nM | Cn1nc(NS(C)(=O)=O)c2cccc(-c3cc4[nH]c(C5CC5)nc4nc3[C@H](Cc3cc(F)cc(F)c3)NC(=O)Cn3nc(C(F)F)c4c3C(F)(F)[C@@H]3C[C@H]43)c21 [Example 93, N—((S)-1-(2-cyclopropyl-6-(1-methyl-3-(methylsulfonamido)-1H-indazol-7-yl)-1H-imidazo[4,5-b]pyridin-5-yl)-2-(3,5-difluorophenyl)ethyl)-2-((3bS,4aR)-3-(difluoromethyl)-5,5-difluoro-3b,4,4a,5-tetrahydro-1H-cyclopropa[3,4]cyclopenta[1,2-c]pyrazol-1-yl)acetamide] |
| 81.2 nM | Cn1nc(NS(C)(=O)=O)c2cccc(-c3cc4[nH]c(-c5ccccc5)nc4nc3[C@H](Cc3cc(F)cc(F)c3)NC(=O)Cn3nc(C(F)(F)F)c4c3C(F)(F)[C@@H]3C[C@H]43)c21 [Example 94, 2-((3bS,4aR)-5,5-difluoro-3-(trifluoromethyl)-3b,4,4a,5-tetrahydro-1H-cyclopropa[3,4]cyclopenta[1,2-c]pyrazol-1-yl)-N—((S)-2-(3,5-difluorophenyl)-1-(6-(1-methyl-3-(methylsulfonamido)-1H-indazol-7-yl)-2-phenyl-1H-imidazo[4,5-b]pyridin-5-yl)ethyl)acetamide] |
| 67.5 nM | Cn1nc(NS(C)(=O)=O)c2cccc(-c3cc4[nH]c(-c5ccccc5)nc4nc3[C@H](Cc3cc(F)cc(F)c3)NC(=O)Cn3nc(C(F)F)c4c3C(F)(F)[C@@H]3C[C@H]43)c21 [Example 95, 2-((3bS,4aR)-3-(difluoromethyl)-5,5-difluoro-3b,4,4a,5-tetrahydro-1H-cyclopropa[3,4]cyclopenta[1,2-c]pyrazol-1-yl)-N—((S)-2-(3,5-difluorophenyl)-1-(6-(1-methyl-3-(methylsulfonamido)-1H-indazol-7-yl)-2-phenyl-1H-imidazo[4,5-b]pyridin-5-yl)ethyl)acetamide] |
| 3.9 nM | Cn1nc(NS(C)(=O)=O)c2c(Cl)ccc(-c3cc4[nH]c(C5CC5)nc4nc3[C@H](Cc3cc(F)cc(F)c3)NC(=O)Cn3nc(C(F)(F)F)c4c3C(F)(F)[C@@H]3C[C@H]43)c21 [Example 96, N—((S)-1-(6-(4-chloro-1-methyl-3-(methylsulfonamido)-1H-indazol-7-yl)-2-cyclopropyl-1H-imidazo[4,5-b]pyridin-5-yl)-2-(3,5-difluorophenyl)ethyl)-2-((3bS,4aR)-5,5-difluoro-3-(trifluoromethyl)-3b,4,4a,5-tetrahydro-1H-cyclopropa[3,4]cyclopenta[1,2-c]pyrazol-1-yl)acetamide] |
| 3.1 nM | Cn1nc(NS(C)(=O)=O)c2c(Cl)ccc(-c3cc4[nH]c(C5CC5)nc4nc3[C@H](Cc3cc(F)cc(F)c3)NC(=O)Cn3nc(C(F)F)c4c3C(F)(F)[C@@H]3C[C@H]43)c21 [Example 97, N—((S)-1-(6-(4-chloro-1-methyl-3-(methylsulfonamido)-1H-indazol-7-yl)-2-cyclopropyl-1H-imidazo[4,5-b]pyridin-5-yl)-2-(3,5-difluorophenyl)ethyl)-2-((3bS,4aR)-3-(difluoromethyl)-5,5-difluoro-3b,4,4a,5-tetrahydro-1H-cyclopropa[3,4]cyclopenta[1,2-c]pyrazol-1-yl)acetamide] |
| 3 nM | Cn1cc(-c2nc3nc([C@H](Cc4cc(F)cc(F)c4)NC(=O)Cn4nc(C(F)F)c5c4C(F)(F)[C@@H]4C[C@H]54)c(-c4ccc(Cl)c5c(NS(C)(=O)=O)nn(C)c45)cc3[nH]2)cn1 [Example 98, N—((S)-1-(6-(4-chloro-1-methyl-3-(methylsulfonamido)-1H-indazol-7-yl)-2-(1-methyl-1H-pyrazol-4-yl)-1H-imidazo[4,5-b]pyridin-5-yl)-2-(3,5-difluorophenyl)ethyl)-2-((3bS,4aR)-3-(difluoromethyl)-5,5-difluoro-3b,4,4a,5-tetrahydro-1H-cyclopropa[3,4]cyclopenta[1,2-c]pyrazol-1-yl)acetamide] |

The next lines start with the molecule.

| Structure (SMILES) | EC50 |
| --- | --- |
| Cn1nc(NS(C)(=O)=O)c2cccc(-c3cc4sc(N5CCC6(CC5)CNC6=O)nc4nc3[C@H](Cc3cc(F)cc(F)c3)NC(=O)Cn3nc(C(F)(F)F)c4c3C(F)(F)[C@@H]3C[C@H]43)c21 [Example 84, 2-((3bS,4aR)-5,5-difluoro-3-(trifluoromethyl)-3b,4,4a,5-tetrahydro-1H-cyclopropa[3,4]cyclopenta[1,2-c]pyrazol-1-yl)-N—((S)-2-(3,5-difluorophenyl)-1-(6-(1-methyl-3-(methylsulfonamido)-1H-indazol-7-yl)-2-(1-oxo-2,7-diazaspiro[3.5]nonan-7-yl)thiazolo[4,5-b]pyridin-5-yl)ethyl)acetamide] | 9.9 nM |
| Cn1nc(NS(C)(=O)=O)c2cccc(-c3cc4sc(N5CC6(CCN6)C5)nc4nc3[C@H](Cc3cc(F)cc(F)c3)NC(=O)Cn3nc(C(F)(F)F)c4c3C(F)(F)[C@@H]3C[C@H]43)c21 [Example 85, 2-((3bS,4aR)-5,5-difluoro-3-(trifluoromethyl)-3b,4,4a,5-tetrahydro-1H-cyclopropa[3,4]cyclopenta[1,2-c]pyrazol-1-yl)-N—((S)-2-(3,5-difluorophenyl)-1-(6-(1-methyl-3-(methylsulfonamido)-1H-indazol-7-yl)-2-(1,6-diazaspiro[3.3]heptan-6-yl)thiazolo[4,5-b]pyridin-5-yl)ethyl)acetamide] | 21.8 nM |
| Cn1nc(NS(C)(=O)=O)c2cccc(-c3cc4sc(N5CCNCC5)nc4nc3[C@H](Cc3cc(F)cc(F)c3)NC(=O)Cn3nc(C(F)(F)F)c4c3C(F)(F)[C@@H]3C[C@H]43)c21 [Example 86, 2-((3bS,4aR)-5,5-difluoro-3-(trifluoromethyl)-3b,4,4a,5-tetrahydro-1H-cyclopropa[3,4]cyclopenta[1,2-c]pyrazol-1-yl)-N—((S)-2-(3,5-difluorophenyl)-1-(6-(1-methyl-3-(methylsulfonamido)-1H-indazol-7-yl)-2-(piperazin-1-yl)thiazolo[4,5-b]pyridin-5-yl)ethyl)acetamide] | 15.3 nM |
| Cn1nc(NS(C)(=O)=O)c2cccc(-c3cc4sc(N5CC6(CNC6)C5)nc4nc3[C@H](Cc3cc(F)cc(F)c3)NC(=O)Cn3nc(C(F)(F)F)c4c3C(F)(F)[C@@H]3C[C@H]43)c21 [Example 87, 2-((3bS,4aR)-5,5-difluoro-3-(trifluoromethyl)-3b,4,4a,5-tetrahydro-1H-cyclopropa[3,4]cyclopenta[1,2-c]pyrazol-1-yl)-N—((S)-2-(3,5-difluorophenyl)-1-(6-(1-methyl-3-(methylsulfonamido)-1H-indazol-7-yl)-2-(2,6-diazaspiro[3.3]heptan-2-yl)thiazolo[4,5-b]pyridin-5-yl)ethyl)acetamide] | 269 nM |
| C[C@H]1CN(c2nc3nc([C@H](Cc4cc(F)cc(F)c4)NC(=O)Cn4nc(C(F)(F)F)c5c4C(F)(F)[C@@H]4C[C@H]54)c(-c4cccc5c(NS(C)(=O)=O)nn(C)c45)cc3s2)CCN1 [Example 88, 2-((3bS,4aR)-5,5-difluoro-3-(trifluoromethyl)-3b,4,4a,5-tetrahydro-1H-cyclopropa[3,4]cyclopenta[1,2-c]pyrazol-1-yl)-N—((S)-2-(3,5-difluorophenyl)-1-(6-(1-methyl-3-(methylsulfonamido)-1H-indazol-7-yl)-2-((S)-3-methylpiperazin-1-yl)thiazolo[4,5-b]pyridin-5-yl)ethyl)acetamide] | 10.3 nM |
| C[C@@H]1CN(c2nc3nc([C@H](Cc4cc(F)cc(F)c4)NC(=O)Cn4nc(C(F)(F)F)c5c4C(F)(F)[C@@H]4C[C@H]54)c(-c4cccc5c(NS(C)(=O)=O)nn(C)c45)cc3s2)CCN1 [Example 89, 2-((3bS,4aR)-5,5-difluoro-3-(trifluoromethyl)-3b,4,4a,5-tetrahydro-1H-cyclopropa[3,4]cyclopenta[1,2-c]pyrazol-1-yl)-N—((S)-2-(3,5-difluorophenyl)-1-(6-(1-methyl-3-(methylsulfonamido)-1H-indazol-7-yl)-2-((R)-3-methylpiperazin-1-yl)thiazolo[4,5-b]pyridin-5-yl)ethyl)acetamide] | 11.3 nM |
| Cn1nc(NS(C)(=O)=O)c2cccc(-c3cc4sc(N5CCC6(CC5)CNC6)nc4nc3[C@H](Cc3cc(F)cc(F)c3)NC(=O)Cn3nc(C(F)(F)F)c4c3C(F)(F)[C@@H]3C[C@H]43)c21 [Example 90, 2-((3bS,4aR)-5,5-difluoro-3-(trifluoromethyl)-3b,4,4a,5-tetrahydro-1H-cyclopropa[3,4]cyclopenta[1,2-c]pyrazol-1-yl)-N—((S)-2-(3,5-difluorophenyl)-1-(6-(1-methyl-3-(methylsulfonamido)-1H-indazol-7-yl)-2-(2,7-diazaspiro[3.5]nonan-7-yl)thiazolo[4,5-b]pyridin-5-yl)ethyl)acetamide] | 431 nM |
| Cn1nc(NS(C)(=O)=O)c2cccc(-c3cc4sc(N5CC6(CCNCC6)C5)nc4nc3[C@H](Cc3cc(F)cc(F)c3)NC(=O)Cn3nc(C(F)(F)F)c4c3C(F)(F)[C@@H]3C[C@H]43)c21 [Example 91, 2-((3bS,4aR)-5,5-difluoro-3-(trifluoromethyl)-3b,4,4a,5-tetrahydro-1H-cyclopropa[3,4]cyclopenta[1,2-c]pyrazol-1-yl)-N—((S)-2-(3,5-difluorophenyl)-1-(6-(1-methyl-3-(methylsulfonamido)-1H-indazol-7-yl)-2-(2,7-diazaspiro[3.5]nonan-2-yl)thiazolo[4,5-b]pyridin-5-yl)ethyl)acetamide] | 64.9 nM |
| Cn1nc(NS(C)(=O)=O)c2cccc(-c3cc4[nH]c(C5CC5)nc4nc3[C@H](Cc3cc(F)cc(F)c3)NC(=O)Cn3nc(C(F)(F)F)c4c3C(F)(F)[C@@H]3C[C@H]43)c21 [Example 92, N—((S)-1-(2-cyclopropyl-6-(1-methyl-3-(methylsulfonamido)-1H-indazol-7-yl)-1H-imidazo[4,5-b]pyridin-5-yl)-2-(3,5-difluorophenyl)ethyl)-2-((3bS,4aR)-5,5-difluoro-3-(trifluoromethyl)-3b,4,4a,5-tetrahydro-1H-cyclopropa[3,4]cyclopenta[1,2-c]pyrazol-1-yl)acetamide] | 14.8 nM |
